Test results taken from US4001263A, “5-Aryl-1,2,3,4-tetrahydro-γ-carbolines” (Pfizer Inc., priority 1975, dated 1977).
Where a name gives a salt, the structure may show the parent alone. Read-outs that look alike come from different tables or passages of the source.

Tested on: amphetamine-induced symptoms in rats
Assay: antagonism of amphetamine-induced symptoms in rats (block of characteristic amphetamine cage movement behavior)
Type: in vivo
Conditions: Rattus norvegicus, ip
Excerpt: The tranquilizing agents of the present invention are characterized by relief of such schizophrenic manifestations in humans as hallucinations, hostility, suspiciousness, emotional or social withdrawal, anxiety, agitation and tension. Standard procedures of detecting and comparing tranquilizing activity of compounds in this series and for which there is an excellent correlation with human efficacy is the antagonism of amphetamine-induced symptoms in rats test, as taught by A. Weissman, et al., J. Pharmacol. Exp. Ther., 151, 339 (1966) and by Quinton, et al.,Nature, 200, 178 (1963).
The effects of the compounds of the present invention on prominent amphetamine-induced symptoms were studied in rats by a rating scale modeled after the one reported by Quinton and Halliwell, and Weissman. Groups of five rats were placed in a covered plastic cage measuring approximately 26 cm. × 42 cm. × 16 cm. After a brief period of acclimation in the cage, the rats in each groups were treated intraperitoneally (i.p.) with the test compound. […] On the basis of dose-response data after amphetamine it was possible to determine the effective dose of the compound necessary to antagonize or block the characteristic amphetamine behavior of cage movement for 50 percent of the rats tested (ED50). The time of rating chosen coincides with the peak action of amphetamine which is 60-80 min. after treatment with this agent.
Employing the above-described procedure, the following compounds were tested for their ability to block the behavior effects of amphetamine, the results being reported as the ED50 in mg./kg. at the indicated times: […]

[1] = rats, i.p., d-amphetamine sulfate 5 mg./kg. i.p. given 1 hr. after test compound, read-out: ED50 to antagonize or block amphetamine behavior, 1 hr.
[2] = rats, i.p., d-amphetamine sulfate 5 mg./kg. i.p. given 5 hrs. after test compound, read-out: ED50 to antagonize or block amphetamine behavior, 5 hrs.
[3] = rats, i.p., d-amphetamine sulfate 5 mg./kg. i.p. given 24 hrs. after test compound, read-out: ED50 to antagonize or block amphetamine behavior, 24 hrs.

Row | SMILES | ED50 [1] | ED50 [2] | ED50 [3] | ED50 (1 h, read-out: ED50 to antagonize or block amphetamine behavior, 1 hr.)
1 | CN1CCc2c(c3cc(Br)ccc3n2-c2ccccc2)C1 [Br, H, CH3] | 3.2 to 10 mg/kg |  |  | 
2 | CCN1CCc2c(c3cc(Cl)ccc3n2-c2ccccc2)C1 [Cl, H, C2H5] | 3.2 to 10 mg/kg |  |  | 
3 | CN1CCc2c(c3cc(Cl)ccc3n2-c2ccccc2)C1 [Cl, H, CH3, 8-Chloro-5-phenyl-2-methyl-1,2,3,4-tetrahydro-γ-carboline hydrochloride] | 3.2 to 10 mg/kg |  |  | 
4 | CC(C)(C)CCN1CCc2c(c3cc(F)ccc3n2-c2ccc(F)cc2)C1 [F, F, (CH3)3C(CH2)2, 8-fluoro-5-(p-fluorophenyl)-2-(3,3-dimethyl-n-buty)-1,2,3,4-tetrahydro-γ-carboline] | 1 to 3.2 mg/kg | > 10 mg/kg | > 10 mg/kg | 
5 | CCN1CCc2c(c3cc(F)ccc3n2-c2ccc(F)cc2)C1 [F, F, C2H5, 8-Fluoro-5-(p-fluorophenyl)-2-ethyl-1,2,3,4-tetrahydro-γ-carboline hydrochloride] | 3.2 to 10 mg/kg | > 10 mg/kg | > 10 mg/kg | 
6 | CN1CCc2c(c3cc(F)ccc3n2-c2ccc(F)cc2)C1 [F, F, CH3, 8-Fluoro-5-(p-fluorophenyl)-2-methyl-1,2,3,4-tetrahydro-γ-carboline hydrochloride] | 1 to 3.2 mg/kg |  |  | 
7 | CCCN1CCc2c(c3cc(F)ccc3n2-c2ccc(F)cc2)C1 [F, F, n-C3H7, 8-fluoro-5-(p-fluorophenyl)-2-n-propyl-1,2,3,4-tetrahydro-γ-carboline] | 3.2 to 10 mg/kg | > 10 mg/kg | > 3.2 mg/kg | 
8 | Fc1ccc(C=CCCN2CCc3c(c4cc(F)ccc4n3-c3ccc(F)cc3)C2)cc1 [F, F, p-FC6H4CHCH(CH2)2, 8-Fluoro-5-(p-fluorophenyl)-2-[4-(p-fluorophenyl)-3-butenyl]-1,2,3,4-tetrahydro-γ-carboline] | 3.2 to 10 mg/kg | 1 to 3.2 mg/kg | > 3.2 mg/kg | 
9 | CN1CCc2c(c3cc(F)ccc3n2-c2ccccc2)C1 [F, H, CH3] | 3.2 to 10 mg/kg |  |  | 
10 | c1ccc(CN2CCc3c(c4ccccc4n3-c3ccccc3)C2)cc1 [H, H, CH2C6H5, 5-phenyl-2-benzyl-1,2,3,4-tetrahydro-γ-carboline, reference compound] | > 32 mg/kg |  |  | 
11 | CN1CCc2c(c3ccccc3n2-c2ccccc2)C1 [H, H, CH3, 5-phenyl-2-methyl-1,2,3,4-tetrahydro-γ-carboline, reference compound] | 10 to 32 mg/kg |  |  | 
12 | CN(C)CCCN1c2ccccc2Sc2ccc(Cl)cc21 [chlorpromazine, reference compound] |  |  |  | 7 mg/kg
